Source: US9855239B2, “Methods for the treatment and prevention of age-related retinal dysfunction” (University of Washington, priority 2008, dated 2018)
Entries after “also recorded” stand apart in the source; their conditions may differ.

How the values were obtained:
[1] = tested on: retina; assay: Retinal morphology (light and electron microscopy); assay type: in vivo, mouse
Experimental: The thickness of each major layer in the retina was also similar between control and treated groups.
For light microscopy, mouse eyecups were fixed with 2.5% glutaraldehyde and 1.6% paraformaldehyde in 0.08 M 1,4-piperazinediethanesulfonate buffer (PIPES) (pH 7.4) containing 2% sucrose for ˜1 hr at room temperature followed by 23 hr at 4° C. Eyecups then were washed with 0.13 M sodium phosphate buffer (pH 7.3) and dehydrated through a CH3OH series and embedded in JB4 glycol metacrylate. Sections (6 μm) were stained by immersion in 5% Richardson's stain for 1.5-2 min at room temperature and destained in 0.13 M sodium phosphate (pH 7.3) until the retinal layers were visible by light microscopy (about 8-15 min). For transmission electron microscopy, mouse eyecups were analyzed as described previously (Maeda, A., et al. J Blot Chem 280, 18822-18832 (2005); Maeda, T., Lem, J., Palczewski, K. & Haeseleer, F. Investigative ophthalmology & visual science 46, 4320-4327 (2005)).

[2] = molecular target: T1, rhodopsin/opsin (Mus musculus, UniProt P15409); assay: Rhodopsin regeneration ratio of immunoaffinity-purified rhodopsin/opsin, single dose; assay type: in vivo
T1 construct: from tissue; host or cells: whole eyes of wild-type C57BL/6 female mice
Experimental: Forty eight hr dark-adapted, 10-month-old mice were gavaged with a single dose (˜80 mg/kg body weight) of 9-cis-R-Ac or control vehicle and exposed to strong illumination for 20 min (500 cd·m^−2 that bleached ˜90% rhodopsin). Next, mice were dark-adapted for 16 hr after which various analyses were performed (FIG. 1A). […] To investigate whether 9-cis-retinal was utilized to form isorhodopsin and to assess how much unliganded opsin was present in the mouse eyes, rhodopsin, isorhodopsin and opsin were purified by immunoaffinity chromatography from treated and control groups of mice. […] After bleaching, 9-cis-retinal is bound to opsin even in the presence of a functional retinoid cycle that produces 11-cis-retinal to regenerate rhodopsin. Eyes from non-bleached or bleached and dark-adapted untreated mice contained a small amount of free opsin.
9-cis-R-Ac was prepared as previously described (Batten, M. L., et al. PLoS medicine 2, e333 (2005); Batten, M. L., et al. J Biol Chem 279, 10422-10432 (2004)). A dose of ˜80 mg/kg body weight of 9-cis-R-Ac in 150 μl vegetable oil was administered via gavage to each treated animal. Prior to single dose experiments (FIG. 1A, Table 1), 10-month-old mice were dark-adapted for more than 48 hr, gavaged with 9-cis-R-Ac or vehicle control solution 1 hr before bleaching, exposed to light for 20 min at 500 cd·m^−2 and dark-adapted for 16 hr before analysis.
Rhodopsin purification was done under dim red light as previously described (Zhu, L., et al. J Biot Chem, 279, 53828-53839 (2004)). […] Purified rhodopsin concentration was determined at 500 nm and total amount of opsin and rhodopsin at 280 nm with a Hewlett-Packard 8452A UV-visible spectrophotometer (Palczewski, K., Carruth, M. E., Adamus, G., McDowell, J. H. & Hargrave, P. A. Vision Research, 30, 1129-1137 (1990)). […]

[3] = tested on: C57BL/6 female mice; assay: Single flash ERG analyses after long-term treatment; assay type: in vivo, mouse; conditions: for a- and b-wave amplitudes, scotopic and photopic single flash ERG: 80 mg/kg
Source text: To evaluate the effects of rod- and cone-mediated light responses after long-term 9-cis-R-Ac treatments, mice were examined by non-invasive ERG methods. The first set of analyses was done at 4 and 10 months of age. Under scotopic conditions, the amplitudes of a-waves decreased with age, especially at high flash intensities (C1 versus C0 group, FIG. 4A, left top panel), whereas the changes in b-waves were less evident (FIG. 4A, right top panel).
The second set of analyses was done at 14 months of age.
Six groups of mice were studied (FIG. 1B).
Two weeks after the last gavage with either, 9-cis-R-Ac, all-trans-R-Ac or vehicle, groups of 48 hr dark-adapted mice were analyzed for recovery of dark adaptation after light exposure, purified rhodopsin/opsin and retinoids in the eye and retinal morphology (FIG. 1C; Methods). Mice were exposed to light of intensity 500 cd·m^−2 that bleached ˜90% of rhodopsin, anesthetized and monitored by ERG for one hr to evaluate recovery of dark adaptation. Rhodopsin was purified and rhodopsin/opsin ratios was determined. Retinoid analyses were performed on dissected eyes removed at 0, 10, 30, and 60 min after exposure to the same amount of light. Mice used to evaluate retinal morphology were not exposed to photobleaching prior to analysis.
ERGs of anesthetized mice were recorded as previously reported.

T1 sequence (P15409 whole entry): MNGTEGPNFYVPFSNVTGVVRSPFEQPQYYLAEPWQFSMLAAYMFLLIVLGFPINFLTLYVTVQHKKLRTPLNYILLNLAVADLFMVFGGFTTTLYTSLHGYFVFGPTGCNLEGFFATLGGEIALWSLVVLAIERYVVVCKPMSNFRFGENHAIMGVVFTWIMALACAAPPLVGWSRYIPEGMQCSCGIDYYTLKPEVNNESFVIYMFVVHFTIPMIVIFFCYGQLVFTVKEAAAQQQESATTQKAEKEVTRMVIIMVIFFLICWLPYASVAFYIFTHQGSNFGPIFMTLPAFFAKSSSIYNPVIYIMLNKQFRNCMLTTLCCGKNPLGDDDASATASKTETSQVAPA

## CC(=O)OC/C=C(C)/C=C/C=C(C)\C=C\C1=C(C)CCCC1(C)C [9-cis-R-Ac, 9-cis-retinyl acetate]
[1]; 10 and 14 months of age
  retinal abnormalities by light microscopy: no major abnormalities
[1]; control vs treated
  EM analysis of the outer retina and RPE layer: no gross differences
  thickness of each major layer in the retina: similar
[1]; control vs treated at 10 and 14 months of age
  lengths of rod outer segments (ROS): similar
[2]; single dose ~80 mg/kg gavage, 10-month-old mice, bleached, 16 hr dark-adapted, treated vs control, 80 mg/kg
  regeneration ratio of rhodopsin (absorbance 498 nm/280 nm): significantly higher; also recorded: improved; also recorded: slightly higher
[2]; single dose, samples from treated mice
  9-cis-retinal extracted from purified proteins (bound chromophore): a significant amount of 9-cis-retinal was detected
[2]; single dose, treated vs control
  total amount of purified protein: did not significantly differ
[3]; 10 months of age, monthly gavage ~80 mg/kg for 6 months (N1 vs C1), high flash strengths, except a-waves under photopic conditions
  a- and b-wave amplitudes, scotopic and photopic single flash ERG: slight improvement; also recorded: significantly improved; also recorded: increased significantly
[3]; 14 months of age, dark-adapted mice, treated vs control
  sensitivities and maximal a-wave amplitudes estimated from a-wave maximal responses: not to be significantly different
[3]; 14 months of age, monthly gavage ~80 mg/kg (9-cis-R-Ac: N2 and N3), vs control C2
  a- and b-wave amplitudes, scotopic and photopic single flash ERG: No significant differences; also recorded: largely disappeared
